The structures appear in SMILES notation. Read-outs that look alike come from different tables or passages of the source.

The subject of this data set is CT-26 mourine tumor cells. Particulars: for survival rate of mice: FIG. 8. How it is done:
Female BALB/c mice (average weight: 20 g) were injected subcutaneously in the flank with CT-26 mourine tumor cells (5×10^4 cells/mouse). When the tumor was growing to the size of 3 mm×3 mm, the mice were divided into two groups; an experimental group and a control group. Each group was filled with 8 mice having a tumor and they were marked in their ears for the observation. 15 days after the transplantation, the administration (an intravenous injection) of drug and vehicle began. Each test drug was administered both with low dose of 2 mg/kg and with high dose of 10 mg/kg every three days four times total for 12 days. Only vehicle (cremophor:dehydrated ethyl alcohol, 1:1 v/v) was administered to a control group. Death rate of mice was checked every day and the growth of a tumor was measured using caliper measurement device at two or three day interval. Tumor volume was calculated by the following Formula 2. Tumor volume: mm^3=(Length×Width^2)/2 <Formula 2>
A drug or a vehicle was injected into tail vein of a mouse two weeks after tumor transplantation.
Tumor volume was measured from the 15th day after tumor cell transplantation.

As to `CC(=O)O[C@H]1C(=O)[C@@]2(C)[C@H]([C@H](OC(=O)c3ccccc3)[C@]3(O)C[C@H](OC(=O)[C@H](O)[C@@H](NC(=O)c4ccccc4)c4ccccc4)C(C)=C1C3(C)C)[C@]1(OC(C)=O)CO[C@@H]1C[C@@H]2O` [paclitaxel], the “time for which tumor growth was inhibited before regrowth” value (10 mg/kg i.v., CT-26 tumor mice, FIG. 9) came out at 30 days. In addition, the “survival rate of mice” value (high dose 10 mg/kg i.v. every three days four times, CT-26 tumor mice) was “not much different from each other” and the “survival rate of mice” value (low dose 2 mg/kg i.v. every three days four times, CT-26 tumor mice) is given as “not much different from each other”. In addition, the “tumor volume / anticancer activity” value (high dose 10 mg/kg i.v., CT-26 tumor mice, FIG. 9) is on record as “remarkably decreased”. Under “low dose 2 mg/kg i.v., CT-26 tumor mice, FIG. 9”, the “tumor volume / tumor growth” value was “not much different between them”. Further, the “weight changes of mice” value (mouse, in vivo) is “not significantly different”.
